Results: patent US20240101664A1, “TREATMENT OF PERITONEAL, PLEURAL, AND PERICARDIUM ADHESIONS” (UTI LIMITED PARTNERSHIP, priority 2020, published 2024)

Experiments:
[1] = system: peritoneal cavity macrophages; experiment: Aggregometry of isolated peritoneal macrophages; format: cell-based, mouse; details: 37° C., 400 rpm
Protocol: Macrophages were isolated by peritoneal lavage as described above with the use of 2 mM EDTA containing HBSS instead of PBS. Macrophages were centrifuged at 300 g for 5 min in a 50-ml polystyrene tube. The pellet (with approximately 100 μl of fluid remaining with 3×10^6 cells) was diluted in HBSS containing 2 mM Ca^2+ to a final volume of 400 μl. It was then transferred to a aggregometry cuvette, which was warmed to 37° C. and continuously stirred (400 rpm). Light transmission was recorded on a 700 Whole Blood/Optical Lumi-Aggregometer (Chrono-log) and was expressed in arbitrary units with buffer representing 100% transmission and washed macrophage suspension 0% transmission, respectively. Agonists and calcium were added to reach a Ca^2+ concentration of 4 mM total or 2 mM free calcium in a buffer containing 2 mM EDTA. The preparation of platelet aggregometry was performed as previously described (53). Washed platelets (50 μl with 5×10^5 platelets per microliter) were diluted into 110 μl of Tyrode-HEPES buffer containing 2 mM Ca^2+ and 100 μg/ml human fibrinogen. Agonists (ATP, thrombospondin) were added at the indicated concentrations to the continuously stirred platelet suspension. Murine neutrophils were isolated from the bone marrow of wild-type C57Bl/6, mice as previously described (46). Briefly, bone marrow was collected from the femurs and tibias of euthanized mice, and neutrophils were isolated using a discontinuous Percoll gradient consisting of a Percoll solution (9 ml of Percoll and 1 ml 10× of HBSS) diluted to 72%, 64%, and 52% in 1×HBSS. Following centrifugation, the neutrophil band was removed and washed in HBSS. Cell pellets were resuspended in HBSS containing either 2 mM Ca2^+ or EDTA. Aggregometry was performed as described above.

[2] = system: Gata6+ cavity macrophages; experiment: Open-pouch intravital microscopy: cavity macrophage recruitment/aggregation at transmesothelial laser injury; format: in vivo, mouse; details: for number of macrophages attaching/aggregating at the injury (normalized macrophage count): 30 min post transmesothelial laser injury, intraperitoneal treatment 20 min before
Protocol: The following neutralizing antibodies (versus isotype controls) and reagents were intraperitoneally tested for their effect on macrophage recruitment: anti-mouse CD18 (100 μg per mouse, GAME-46, BD Pharmingen)+anti-mouse CD29 (100 μg per mouse, HM β31-1, BD Pharmingen) versus isotype rat IgG1, κ (100 μg per mouse, BioXcell)+hamster IgG (100 μg per mouse, eBioscience); anti-mouse CD162 (100 μg per mouse, 4RA10, BD Pharmingen) versus isotype rat IgG1 (100 μg per mouse, eBioscience); anti-human CD9 (10 μg per mouse, ALB 6, Santa Cruz) versus isotype mouse IgG1 (BD Biosciences). Heparin (Sandoz) was diluted in sterile saline to reach final dose of 100-1000 U per mouse. Argatroban (Sigma-Aldrich) was dissolved in DMSO at 20 mg/ml and diluted with saline to reach a final concentration of 300 μg per mouse. Hirudin (Multiplate Hirudin Blood Tube, Roche) was dissolved in saline and injected intraperitoneally at a dose of 1 tube per mouse. Polyinosinic acid (poly(I)) and polycytidylic acid (poly(C)) were purchased as potassium salt (Sigma-Aldrich) and dissolved in double-distilled water according to manufacturer's instructions to 5 mg/ml and 20 mg/ml, respectively. Immediately before experiments, the poly(C) stock solution was diluted with double-distilled water to a final concentration of 5 mg/ml. Both poly(I) and poly(C) were then diluted with saline to reach a final dose of 250 μg per mouse. A total of […] Anti-mouse Marco antibody (ED31, Biorad MCA1849) versus rat IgG1 Isotype control (eBRG1, eBioscience 16-4301-85) was injected intraperitoneally in a total volume of 140 μl PBS per mouse. A volume of 100 μl anti-mouse thrombocyte depletion serum (Cedarlane, CLAD31440) versus normal rabbit serum (Cedarlane, CLSD403) was injected intra venously 24 hours before imaging.
Mice used for IVM were 8-10 weeks old weighted an average of 20 g. Mice in each experiment were of the same sex. If not specified otherwise, mice were generally treated pharmacologically or with neutralizing antibodies 20 min before imaging. Mice were anesthetized with a mixture of ketamine hydrochloride (200 mg/kg, Rogar/SBT) and xylazine hydrochloride (10 mg/kg, MTC Pharmaceuticals). After anesthesia, the tail vein was cannulated for administration of additional anesthetic, antibodies, or other reagents in certain experiments.
The pouch model IVM (FIG. 1) was prepared with the mouse in supine position. Thermal support was given with a heated stage to maintain 37° C. body temperature. The fur and skin above the ventral abdominal wall were aseptically cleaned with 70% ethanol and then removed. Care was taken not to open the peritoneal cavity. If the peritoneal cavity was accidentally opened, the mouse was immediately euthanized. Staining antibody or dye was intraperitoneally injected with a 28G needle in midline about 10 mm above the symphysis. After withdrawing the needle, a suture was placed to seal the hole caused by the injection. This suture was then used to immobilize a part of the peritoneum onto the coverslip. For this, the mouse was placed in a semi-prone position. Placing a cotton tip with slight top to bottom pressure helped to further increase imaging stability yet preserved a connection between the imaging pouch and peritoneal cavity so that peritoneal fluid movement was preserved. The closed pouch was prepared by applying more pressure on the cotton tip which allowed us to separate the pouch from the peritoneal cavity in terms of fluid movement. After IVM, all mice were immediately euthanized.
Images were exported as uncompressed .tif files and analyzed using ImageJ (55). Tracking was generally performed in an automated fashion using the TrackMate plugin (56). The cell shown in FIG. 1J was tracked manually. Cell counts and injury size was measured manually in ImageJ. Three-dimensional visualizations and volume quantifications were performed in Imaris software. […]

[3] = system: macrophage disappearance reaction; details: intraperitoneal administration; hypersensitivity reaction or Escherichia coli; cited from earlier work
[4] = system: cells isolated from abdominal cavity (peritoneal fluid sample); experiment: Aggregometry of human peritoneal fluid cells; format: cell-based; details: ATPgs 100 uM, CaCl 2 mM, Poly(I)/Poly(C) 2 mg/ml; phase contrast
Protocol: Cells were isolated from abdominal cavity by laparotomy or laparascopy, lavaged with 200 ml saline and stored on ice. The cell samples were transferred through 70 um filters into 50 ml falcon tubes and spun at 300 g for 5 min at 4 degree. The pellet was resuspended in HBSS without Ca and without Mg. For aggregometry cells were exposed to: EDTA final concentration 2 mM; ATPgs final concentration 100 uM; CaCl final concentration 2 mM; and Poly(I)/Poly(C) final concentration 2 mg/ml. The final volume of 100 uL was attained with HBSS. Cells from one patient were exposed to three different conditions: EDTA alone (negative control); ATP/Poly(C); ATP/Poly(I). Image with phase contrast was captured (FIG. 14).

[5] = system: focal thermal lesions of liver; experiment: Focal thermal hepatic injury healing; format: in vivo, mouse; details: 7 d after injury
Protocol: Intravital liver imaging was performed as previously described (45). Exposed tissues were visualized with a Leica SP8 DIVE inverted microscope equipped with 4 Tune, a tunable in vivo detection system and a multiphoton light path. All images shown here were acquired using a HC FLUOTAR L 25×/0.95 W objective with water as immersion medium and 2× digital zoom. Fluorescent moieties were excited with a tunable InSight ×3 ultrafast laser (Spectra-Physics) at 800-1000 nm. Signal was detected using external, extremely sensitive non-descanned hybrid detectors. Second harmonic generation by collagen was recorded by tuning the detector to excitation wavelength divided by two ±20 nm. Leica LAS X software was used to drive the microscope.
(§1) For surgical procedures, mice were 8-12 weeks old with a body weight >20 g. Mice in each experiment were of the same sex. Mice were treated before surgery with poly(I), poly(C), liposomes, or diphtheria toxin as described above. Anesthesia was induced and maintained with isoflurane. Eye lubricant was topically applied and buprenorphine (0.1 mg/kg) was subcutaneously administered.
Focal thermal injury in the liver was performed as previously described (49). In brief, a mini-laparotomy was made just below the xyphoid to expose the liver. Three focal injuries were induced on the surface of the liver using the tip of a heated 30G needle mounted on an electrocautery device. […]

[6] = system: focal thermal injury of the parietal peritoneum; experiment: Peritoneal focal thermal injury healing; format: in vivo, mouse; details: 3 days after injury; wound area and mesothelial coverage; poly(C) control
Protocol: Abdominal-wall-flap IVM was used to visualize the mesothelium and epigastric blood vessels (FIG. 2A, FIG. 3, F-I). Mice were placed in supine position on heated stage to maintain 37° C. body temperature. The fur and skin above the ventral abdominal wall were removed and then aseptically cleaned with 70% ethanol. Staining antibodies (anti-mouse podoplanin and anti-mouse F4/80 as described above) were injected. After mice were incubated for 10 min on a heated stage, the peritoneum was incised with an inverted U-shaped incision ranging from directly below the xyphoid process to the inguinal ligament on both sides. This created a perfused flap of peritoneum and the rectus abdominis muscles. The flap was washed with 1 ml of PBS and placed directly on the glass coverslip of the heated stage for imaging of abdominal wall or epigastric blood vessels.
as §1
The peritoneal focal thermal injury was adapted from the focal thermal liver injury that was previously described (46). The skin was incised in midline. […]

peritoneal adhesions = experiment: Peritoneal-button injury model of post-surgical peritoneal adhesions; format: in vivo, mouse
Protocol: as §1
For the peritoneal button injuries, skin was incised in midline. The peritoneal cavity was accessed through midline laparotomy. Standardized lesions were induced as previously described (47). In brief, a small portion of the peritoneum was grasped and ligated at its base using 4-0 Prolene suture (Ethicon), creating a standardized peritoneal button. This was repeated for a total of four buttons, one in each quadrant. Finally, peritoneum and skin were sutured with 6-0 Prolene (Ethicon) running suture.
Prior to sacrifice, mice were anesthetized (10 mg/kg xylazine hydrochloride and 200 mg/kg ketamine hydrochloride). Laparotomies were performed in an inverted U-shape. Adhesion were scored based on their tensile strength and vascularization (Table 2) as previously described (51). The animal was subsequently euthanized and perfused with 2 mM EDTA and 4% PFA containing PBS. Peritoneal buttons/adhesions were excised and post-fixated in 4% PFA containing PBS for 2-4 hours. Tissue staining and clearing was performed as previously described (52). […] Then the biopsies were incubated with fluorescently conjugated monoclonal antibodies for 1-4 days at 4° C. on a rotation device. […] Signal was detected using external, non-descanned hybrid detectors. Second harmonic generation by collagen was recorded by tuning the detector to excitation wavelength divided by two ±20 nm. […]
Mouse peritoneal lavage was performed in anesthetized animals by injection and aspiration of three times 5 ml of sterile ice-cold PBS containing 2 mM EDTA into the peritoneal cavity and subsequent retrieval. […] Samples were run using BD FACS Canto flow cytometer and analyzed using FlowJo software (Tree Star). […]

[7] = intravital imaging following poly(I) administration

## O=C(O)CN(CCN(CC(=O)O)CC(=O)O)CC(=O)O [EDTA]
[1]
  macrophage aggregation in vitro: inhibited

## Nc1ncnc2c1ncn2[C@@H]1O[C@H](COP(=O)(O)OP(=O)(O)OP(=O)(O)O)[C@@H](O)[C@H]1O [adenosine triphosphate]
[1]
  macrophage aggregation in vitro: accelerate macrophage aggregation

## CC1CNc2c(cccc2S(=O)(=O)N[C@@H](CCCNC(=N)N)C(=O)N2CC[C@@H](C)C[C@@H]2C(=O)O)C1 (some centres unmarked) [argatroban, Argatroban]
[2]
  number of macrophages attaching/aggregating at the injury (normalized macrophage count): did not replicate this effect

## Heparin
[3]
  macrophage disappearance reaction: inhibit the macrophage disappearance reaction
[2]
  number of macrophages attaching/aggregating at the injury (normalized macrophage count): significantly reduced the number of attaching cells

## Hirudin
[2]
  number of macrophages attaching/aggregating at the injury (normalized macrophage count): did not replicate this effect

## Polycytidylic acid [Poly(C)]
[4]
  aggregates of human peritoneal fluid cells: large aggregate observed

## Polyinosinic acid [poly(I)]
[5]
  healing of focal thermal lesions of liver: similarly affected
[2]
  number of macrophages attaching/aggregating at the injury (normalized macrophage count): significantly decreased macrophage aggregation
[2]; [7]
  initial adhesion to the wound: left relatively intact
  macrophage-macrophage aggregate formation over time: significant decrease
[1]
  macrophage aggregation in vitro: prevent macrophage aggregation in vitro
[6]
  healing of focal thermal injury of the parietal peritoneum: prolonged healing
Peritoneal adhesions; 3 hours post-surgery, flow cytometry
  reduction of cavity macrophage numbers in the peritoneal lavage after surgery: only partially inhibited
Peritoneal adhesions; within 3 hours post-surgery
  recruitment of cavity macrophage aggregates from the peritoneal fluid to the buttons: could be reduced
Peritoneal adhesions; within 7 days post-surgery
  number and tenacity of peritoneal adhesions: significantly reduced
[4]
  aggregates of human peritoneal fluid cells: no aggregates
